# Reference: BindingDB's records for patent US11993596 (Chia Tai Tianqing Pharmaceutical Group, 2024)
# Biological target: T1, 3',5'-cyclic-AMP phosphodiesterase 4B (Homo sapiens, UniProt Q07343)
# T1 construct: gene PDE4B
# Assay: In Vitro Detection of the Inhibitory Activity of Compounds Against PDE 4B Enzyme
# Procedure: The recombinant human PDE4B enzyme and enzyme substrate (1 μM cAMP) were each dissolved in newly prepared experimental buffer solution;2. The PDE4B enzyme buffer solution was transferred into reaction wells;3. The compound which was dissolved in 100% DMSO was added to the reaction wells containing PDE4B enzyme buffer solution by acoustic technique (echo 550; […]) and the mixture was incubated for 10 minutes at room temperature;4. The enzyme substrate buffer solution was added to the above reaction wells to initiate reaction;5. The resulting mixture was incubated at room temperature for 1 hour;6. The detection mixture (Transcreener AMP2/GMP2 antibody and AMP2/GMP2 AlexaFluor633 tracer) was added to stop the reaction, and the resulting mixture was incubated for 90 minutes while slowly mixing.
# T1 sequence (Q07343 whole entry, looked up): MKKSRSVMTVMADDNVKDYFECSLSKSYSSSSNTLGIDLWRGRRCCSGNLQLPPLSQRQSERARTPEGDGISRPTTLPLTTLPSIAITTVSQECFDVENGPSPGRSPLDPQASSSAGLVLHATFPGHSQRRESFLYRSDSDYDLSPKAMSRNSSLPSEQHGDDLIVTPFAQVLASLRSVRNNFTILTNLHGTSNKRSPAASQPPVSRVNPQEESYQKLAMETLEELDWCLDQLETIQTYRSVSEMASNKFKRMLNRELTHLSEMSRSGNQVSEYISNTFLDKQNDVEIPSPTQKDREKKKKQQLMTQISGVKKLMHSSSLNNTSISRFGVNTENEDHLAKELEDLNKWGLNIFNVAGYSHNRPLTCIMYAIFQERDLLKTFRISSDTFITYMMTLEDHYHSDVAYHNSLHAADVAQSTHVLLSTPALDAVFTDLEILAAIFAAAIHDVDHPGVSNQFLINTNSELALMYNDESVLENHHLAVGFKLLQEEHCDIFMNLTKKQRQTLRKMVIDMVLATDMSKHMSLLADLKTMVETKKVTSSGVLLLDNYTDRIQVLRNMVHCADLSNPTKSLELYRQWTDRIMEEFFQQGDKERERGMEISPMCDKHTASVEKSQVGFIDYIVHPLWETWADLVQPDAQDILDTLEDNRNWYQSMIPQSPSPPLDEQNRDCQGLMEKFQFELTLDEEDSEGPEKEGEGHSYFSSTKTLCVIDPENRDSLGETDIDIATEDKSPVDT
row,Structure (SMILES),IC50 [nM]
1,"CCOc1cc2c(cc1OC)-c1c/c(=N\c3c(C)cc(C)cc3C)n(CCN3CCOC3=O)c(=O)n1CC2 [US11993596, Compound WX001]",6.5
2,"CCOc1cc2c(cc1OC)-c1c/c(=N\c3c(C)cc(C)cc3C)n(CCNc3nncs3)c(=O)n1CC2 [US11993596, Compound WX005]",5.7
3,"CCOc1cc2c(cc1OC)-c1c/c(=N\c3c(C)cc(C)cc3C)n(CCNC(=O)c3nnc[nH]3)c(=O)n1CC2 [US11993596, Compound WX015]",0.56
4,"CCOc1cc2c(cc1OC)-c1c/c(=N\c3c(C)cc(C)cc3C)n(CCN(O)C(=O)c3cnn[nH]3)c(=O)n1CC2 [US11993596, Compound WX064]",1.4
5,"CCOc1cc2c(cc1OC)-c1c/c(=N\c3c(C)cc(C)cc3C)n(CCNc3nc[nH]n3)c(=O)n1CC2 [US11993596, Compound WX003]",2.2
6,"CCOc1cc2c(cc1OC)-c1c/c(=N\c3c(C)cc(C)cc3C)n(CCC(=O)Nc3nnc[nH]3)c(=O)n1CC2 [US11993596, Compound WX054]",2.7
